# How the values were obtained:
# [1] = tested on: PRR5 and TOC1; test: PRR5 and TOC1 fusion protein accumulation by Western blotting; type: in vivo, Arabidopsis
# Protocol: Four‐day‐old seedlings grown under 12‐hr light/12‐hr dark (LD) conditions were transferred into a 96‐well plate with a dropper. Seedlings were treated with 20 µl of MS liquid containing 2% sucrose and AMI‐331 at 2, 10, or 50 µM with a final concentration of 5% (v/v) DMSO. As a control experiment, MS containing 2% sucrose and 5% DMSO was used to treat the seedlings. Seedlings were kept under constant light (L) or constant dark (D) for 24 hr, harvested, and kept frozen until proteins were extracted. Frozen samples were crushed with zirconia beads (Tomy ZB‐50) in a Tissue Lyser II (Qiagen). Detection of PRR5‐ and TOC1‐fusion proteins was performed using a 10%–20% gradient acrylamide gel (198‐15041, Wako) as previously described (Nakamichi et al., 2012). Anti‐FLAG antibody (F3165, Sigma) and anti‐VP antibody (ab4808, Abcam) were used to detect FLAG‐fusion and VP‐fusion proteins, respectively.
# It had previously been shown that CKL4 phosphorylates PSEUDO‐RESPONSE REGULATOR 5 (PRR5), a clock‐associated transcription factor in vitro, and that treatment with the CK1 inhibitor PHA767491 results in over‐accumulation of PRR5 in vivo (Uehara et al., 2019). As a further test of whether the period‐lengthening activity of AMI‐331 is related to the inhibition of CK1 in vivo, we measured the amounts of PRR5 in plants treated with AMI‐331. Seedlings expressing fusion protein PRR5‐FLAG under control of the cauliflower mosaic virus 35S promoter (35Spro:PRR5‐FLAG) were grown under constant light conditions for 4 days, treated with AMI‐331, and kept constantly in the dark for one day. In control experiments (i.e., without AMI‐331), PRR5‐FLAG protein amounts were lower under dark compared to light conditions, due to ZTL‐dependent degradation, as described in previously (Fujiwara et al., 2008; Kiba, Henriques, Sakakibara, & Chua, 2007). […] Since PHA767491 treatment also attenuates degradation of TIMING OF CAB EXPRESSION 1 (TOC1, also called as PRR1) under dark conditions (Uehara et al., 2019), we tested whether AMI‐331 affects TOC1 protein accumulation in vivo. TOC1 amounts were higher in AMI‐331‐treated plants (Figures 3c, S2).
# [2] = biological target: T1, CKL7 (AT5G44100) (Arabidopsis thaliana, UniProt Q9FFH8); test: AMI‐329 bead binding with AMI‐331 competitor, CKL7
# T1 construct: from tissue; host or cells: Arabidopsis seedlings, two weeks old
# Protocol: (§1) Screening for proteins bound to AMI‐329 beads was done by a method similar to what has previously been described (Uehara et al., 2019). Briefly, two‐week‐old seedlings grown under LD conditions were harvested at time points ZT2, ZT6, ZT9, and ZT17, and stored at −80°C. Proteins from the frozen plant samples were incubated with 0, 5, or 50 µM of AMI‐331 at 4°C for 30 min with rotary mixing. Two technical replicates were used for each experiment. PBS‐washed AMI‐329 beads were added to the protein samples and gently rotated at 4°C for 1 hr. AMI‐329 bead resins were washed with bead buffer (Uehara et al., 2019) six times. The washed resins were suspended in SDS sample buffer and boiled for 8 min. Protein samples were in‐gel‐digested as previously described (Uehara et al., 2019). Peptides were analyzed with a Q Exactive hybrid quadrupole‐orbitrap mass spectrometer (Thermo Fisher Scientific), as described previously (Uehara et al., 2019). […]
# (§2) However, another possible mechanism for the strong AMI‐331 biological activity in vivo is that it targets proteins other than the CK1 family for period lengthening. […] It is noteworthy that kinase AT4G08800 is very similar to the CKL family, but the ATP‐binding pocket of mammalian CK1 as determined by its crystal structure (Shinohara et al., 2017) was absent from AT4G08800, as shown in an Araport 11 model (https://www.araport.org). […]
# [3] = biological target: T2, Kinase AT4G34500 (Arabidopsis thaliana, UniProt Q6NKZ9); test: AMI‐329 bead binding with AMI‐331 competitor, kinase AT4G34500
# T2 construct: from tissue; host or cells: Arabidopsis seedlings, two weeks old
# Protocol: as §1, §2
# [4] = biological target: T3, CKL13 (AT1G04440) (Arabidopsis thaliana, UniProt Q5XF24); test: AMI‐329 bead binding with AMI‐331 competitor, CKL13
# T3 construct: from tissue; host or cells: Arabidopsis seedlings, two weeks old
# Protocol: as §1, §2
# [5] = biological target: T4, CKL6 (AT4G28540) (Arabidopsis thaliana, UniProt Q8LPJ1); test: AMI‐329 bead binding with AMI‐331 competitor, CKL6
# T4 construct: from tissue; host or cells: Arabidopsis seedlings, two weeks old
# Protocol: as §1, §2
# T1 sequence (Q9FFH8 whole entry): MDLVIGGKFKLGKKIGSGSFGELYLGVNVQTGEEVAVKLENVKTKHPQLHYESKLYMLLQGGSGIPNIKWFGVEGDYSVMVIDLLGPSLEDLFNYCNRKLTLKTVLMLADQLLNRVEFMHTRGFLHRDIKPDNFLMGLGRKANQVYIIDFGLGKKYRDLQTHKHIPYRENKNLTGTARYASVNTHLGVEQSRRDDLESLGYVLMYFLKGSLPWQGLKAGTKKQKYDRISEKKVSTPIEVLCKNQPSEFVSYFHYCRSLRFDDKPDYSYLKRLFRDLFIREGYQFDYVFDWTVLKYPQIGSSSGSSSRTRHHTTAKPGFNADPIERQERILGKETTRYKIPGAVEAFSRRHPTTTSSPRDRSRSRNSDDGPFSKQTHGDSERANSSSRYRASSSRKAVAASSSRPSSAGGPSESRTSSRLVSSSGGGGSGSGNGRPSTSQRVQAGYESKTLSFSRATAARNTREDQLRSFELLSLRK
# T4 sequence (Q8LPJ1 whole entry): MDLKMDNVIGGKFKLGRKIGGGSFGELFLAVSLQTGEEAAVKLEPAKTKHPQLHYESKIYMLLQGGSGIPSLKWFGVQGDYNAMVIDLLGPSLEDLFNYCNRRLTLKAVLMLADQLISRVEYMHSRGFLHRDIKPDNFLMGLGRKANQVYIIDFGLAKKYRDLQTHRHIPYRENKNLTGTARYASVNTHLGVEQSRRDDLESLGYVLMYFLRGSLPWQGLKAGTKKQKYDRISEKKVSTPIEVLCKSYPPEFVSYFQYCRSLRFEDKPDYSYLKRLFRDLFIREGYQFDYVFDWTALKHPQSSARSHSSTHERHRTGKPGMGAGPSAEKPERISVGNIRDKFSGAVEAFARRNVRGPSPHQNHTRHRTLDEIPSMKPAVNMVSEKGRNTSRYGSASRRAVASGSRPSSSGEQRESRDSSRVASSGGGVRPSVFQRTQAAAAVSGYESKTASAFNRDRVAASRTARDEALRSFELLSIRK
# T3 sequence (Q5XF24 whole entry): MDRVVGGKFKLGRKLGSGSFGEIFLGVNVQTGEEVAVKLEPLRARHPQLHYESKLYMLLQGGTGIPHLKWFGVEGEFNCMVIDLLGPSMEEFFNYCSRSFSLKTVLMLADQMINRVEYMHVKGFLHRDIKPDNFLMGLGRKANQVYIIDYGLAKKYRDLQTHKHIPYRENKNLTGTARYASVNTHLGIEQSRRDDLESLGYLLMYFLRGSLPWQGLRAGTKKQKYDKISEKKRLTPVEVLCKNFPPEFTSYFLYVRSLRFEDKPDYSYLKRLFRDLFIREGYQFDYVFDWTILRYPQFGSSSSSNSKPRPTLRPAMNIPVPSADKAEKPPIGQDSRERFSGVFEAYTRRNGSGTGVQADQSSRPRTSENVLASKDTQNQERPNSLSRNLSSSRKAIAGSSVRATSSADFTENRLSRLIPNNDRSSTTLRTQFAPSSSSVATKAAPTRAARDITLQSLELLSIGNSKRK
# T2 sequence (Q6NKZ9 whole entry): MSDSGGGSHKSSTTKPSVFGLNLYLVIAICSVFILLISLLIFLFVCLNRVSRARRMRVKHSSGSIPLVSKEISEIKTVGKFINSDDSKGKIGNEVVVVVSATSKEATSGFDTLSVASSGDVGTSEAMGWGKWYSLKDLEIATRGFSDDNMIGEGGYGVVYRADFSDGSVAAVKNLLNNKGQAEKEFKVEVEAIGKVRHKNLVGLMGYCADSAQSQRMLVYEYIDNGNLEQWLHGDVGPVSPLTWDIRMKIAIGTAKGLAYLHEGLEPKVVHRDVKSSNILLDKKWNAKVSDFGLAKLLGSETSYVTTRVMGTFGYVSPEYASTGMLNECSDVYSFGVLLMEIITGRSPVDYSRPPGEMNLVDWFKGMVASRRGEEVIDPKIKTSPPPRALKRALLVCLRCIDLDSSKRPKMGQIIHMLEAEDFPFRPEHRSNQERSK
compound,measurement,setting,value
C#CCn1c2c(c(Br)c1-c1ccncc1)C(=O)NCC2.Cl [AMI‐331],PRR5‐FLAG protein amount,"[1]; 35Spro:PRR5‐FLAG seedlings, dark conditions",over‐accumulation of PRR5‐FLAG
same,PRR5‐VP protein amount,"[1]; 35Spro:PRR5‐VP seedlings, dose‐dependent",accumulation of PRR5‐VP
same,TOC1 protein amount,[1]; 35Spro:TOC1‐VP seedlings,higher
same,"Effective concentration for increasing PRR5 and TOC1, times lower than required for PHA767491",[1]; in vivo,10–50 times
same,Effective concentrations for PRR5 or TOC1 accumulation,"[1]; seedlings, 24 hr in the dark",10 to 50 µM
same,Spectra (PSMs) AMI‐329 beads bound,[2]; competitor AMI‐331 5 µM,1 PSMs
same,Spectra (PSMs) AMI‐329 beads bound,[2]; competitor AMI‐331 50 µM,0 PSMs
same,Spectra (PSMs) AMI‐329 beads bound,[3]; competitor AMI‐331 5 µM,0 PSMs
same,Spectra (PSMs) AMI‐329 beads bound,[3]; competitor AMI‐331 50 µM,0 PSMs
same,Spectra (PSMs) AMI‐329 beads bound,[4]; competitor AMI‐331 5 µM,0 PSMs
same,Spectra (PSMs) AMI‐329 beads bound,[4]; competitor AMI‐331 50 µM,0 PSMs
same,Spectra (PSMs) AMI‐329 beads bound,[5]; competitor AMI‐331 5 µM,1 PSMs
same,Spectra (PSMs) AMI‐329 beads bound,[5]; competitor AMI‐331 50 µM,0 PSMs

# — article PMC6747015, “Structure–function study of a novel inhibitor of the casein kinase 1 family in Arabidopsis thaliana” (Plant Direct, 2019)
